Data on 18 compounds can be found in patent US20120157471A1, “BENZIMIDAZOLE DERIVATIVES” (PFIZER INC., priority 2009, published 2012).

One experiment relates to Gli-Luc/MEF cells (Smo). As to the kind of experiment: Gli-Luc/MEF assay (Shh-stimulated luciferase reporter under the Gli response element). It counts as cell-based, mouse. The note with it: Mus musculus, MEF, 48 h. The procedure: The Gli-Luc/MEF cells obtained from Gli-Luc transgenic mice (Pfizer CoE, Genetically Modified Mice) contain a luciferase reporter gene under the control of the Gli response element. Luciferase activity stimulated with Sonic hedgehog ligand was inhibited by Smo inhibitors, and IC50 was subsequently calculated.
Plates were incubated at 37° C. and 5% CO2 overnight. On day two, cells were dosed with test compounds at a final concentration ranging from […] to 50 μM at a 3-time series dilution. Immediately after dosing cells with compounds, recombinant mouse sonic hedgehog (Shh, R&D Systems 464-SH) was added to a final concentration of 2 μg/mL. The cells were incubated with compounds and Shh for 48 hours at 37° C. and 5% CO2. Luciferase assays were conducted on Day 4 using the Bright-Glo Luciferase assay system (Promega E2620) according to Promega's protocol. Briefly, Bright-Glo luciferase reagent was made up and 25 uL were added to each well of the 384-well plate containing media. Plates were kept at room temperature for 5 minutes, and then read on an Envision Luminescence plate reader (Perkin-Elmer). IC50 of the inhibition was calculated by using GraphPad Prism.

In experiment [1] the target is T1, human Smo (amino acids 181-787) (Homo sapiens, UniProt Q99835).
T1 construct: expressed in transfected cells; membrane preparation
As to the kind of experiment: Smo radioligand competition binding assay (displacement of 3H-PF-03451358 from HEK293 membranes). The conditions noted are these: for inhibition at 0.05 µM: 0.05 μM test compound, displacement of 3H-PF-03451358, read-out: SMO % inh. @ 0.05 μM; for IC50: radioligand competition binding. On the procedure: Membranes were prepared from a stable cell line created in HEK293FlpIn-TetR cells (Invitrogen) using FIp recombinase-mediated insertion of the pSecTag-FRT/V5-His vector containing a cDNA encoding amino acids 181-787 of human Smo fused to the murine lgk leader sequence to produce a cell surface expressed Smo 181-781 protein. Hygromycin-resistant clones were obtained and stained for LacZ expression (no expression indicates a correct knock-in of my fusion cDNA). LacZ-negative cells were analyzed for binding tritiated Smo antagonist PF-03451358. For membrane preparation, the HEK293 cells expressing Smo 181-781 were grown to 90% confluence in nine to fifteen 245 mm×245 mm×22 mm dishes, washed with Dulbecco's PBS (15 ml per dish) and harvested via scraping in 10 ml of DPBS. The cells were collected and centrifuged at 1500 rpm (400×g) for 10 min at 4° C. The cell pellets were re-suspended in 40 ml of cold DPBS and washed by centrifugation at 2300 rpm (950×g max) for 10 minutes at 4° C. The supernatant was aspirated and the cell pellet was snap frozen in a methanol/dry ice bath and stored at −70° C. For membrane preparation, 15 ml of Membrane Preparation Buffer (50 mM Tris-HCl pH 7.5, 250 mM sucrose with Roche complete protease cocktail tablets) is added to the tube containing the cell pellet, then cells are rapidly thawed, and homogenized using an Ultra-Turrax T8 (IKA Labortechnik) set on “6” for 15 seconds for 5-6 times in icy water bath. This homogenate was diluted up to 50 ml using Membrane Preparation Buffer and centrifuged at 35,000 rpm in a Beckman Ti45 rotor (140,000×g) for 35 minutes at 4° C. followed by aspiration of the supernatant and re-suspension of the pellet in 5 ml of Assay Buffer (50 mM Tris-HCl pH 7.5, 100 mM NaCl, 25 mM MgCl2, 1 mM EDTA, and 0.1% protease free bovine serum albumin). The re-suspended pellet is then homogenized in a glass tissue grinder. The re-suspended membranes are aliquoted (0.5 ml aliquots), snap frozen and stored at −70° C. Total protein in the membrane preparation is determined using the Pierce BCA protein assay (Pierce Chemical).
For the binding competition assay, 100 μl of Assay Buffer is added to all the wells of a 96 well GF/B filter plate (Millipore MultiScreen-HTS-FB cat# MSFBN6B50) for 10 minutes to pre-wet the filter prior to evacuation of the buffer (8 inches Hg for 8 seconds). To the pre-wet wells is added: 20 μl of Assay Buffer, 10 μl diluted test agent, 20 μl of ^3H-PF-3451358 (15 nM stock solution), and 50 μl of membrane preparation (40 μg total protein per well). The plates are sealed and mixed at room temperature for 5 min, incubated at room temperature for 2 hours, then washed 5 times with 100 μl/each of wash buffer and vacuum dried for 8 seconds at 8 inch Hg. The plate is then dried for one hour in a 60° C. oven prior to the addition of 45 μl of Microscint 20 (Packard, #6013621) to each well and incubation at RT for 30 minutes to 1 hour. The plate is counted in a TopCount scintillation counter (Perkin Elmer).
Data analysis uses Excel for % Inhibition and Graphpad Prism for IC50 calculation. Total binding (TB, in the absence of inhibitors)=average of ^3H PF-03451358 3 nM+SMO membrane (40 μg/wells (approx 5000-7000 CPM). Non-specific binding (NSB)=average of ^3H PF-03451358 (3 nM)+cold PF-03451358 (30 μM)+SMO membrane (approx 600-1200 CPM). Specific binding (SB)=(total binding−non-specific binding). % Inhibition=[1−(compound Specific binding/control Specific binding)]×100%. IC50 is calculated by fitting the data to the four parameter sigmoidal dose-response curve (variable slope) Y=Bottom+(Top-Bottom)/(1+10̂((LogEC50−X)*HillSlope)). X is the logarithm of the inhibitor concentration. Y is the response; Y starts at Bottom and goes to Top with a sigmoid shape.

T1 sequence (Q99835 181-787): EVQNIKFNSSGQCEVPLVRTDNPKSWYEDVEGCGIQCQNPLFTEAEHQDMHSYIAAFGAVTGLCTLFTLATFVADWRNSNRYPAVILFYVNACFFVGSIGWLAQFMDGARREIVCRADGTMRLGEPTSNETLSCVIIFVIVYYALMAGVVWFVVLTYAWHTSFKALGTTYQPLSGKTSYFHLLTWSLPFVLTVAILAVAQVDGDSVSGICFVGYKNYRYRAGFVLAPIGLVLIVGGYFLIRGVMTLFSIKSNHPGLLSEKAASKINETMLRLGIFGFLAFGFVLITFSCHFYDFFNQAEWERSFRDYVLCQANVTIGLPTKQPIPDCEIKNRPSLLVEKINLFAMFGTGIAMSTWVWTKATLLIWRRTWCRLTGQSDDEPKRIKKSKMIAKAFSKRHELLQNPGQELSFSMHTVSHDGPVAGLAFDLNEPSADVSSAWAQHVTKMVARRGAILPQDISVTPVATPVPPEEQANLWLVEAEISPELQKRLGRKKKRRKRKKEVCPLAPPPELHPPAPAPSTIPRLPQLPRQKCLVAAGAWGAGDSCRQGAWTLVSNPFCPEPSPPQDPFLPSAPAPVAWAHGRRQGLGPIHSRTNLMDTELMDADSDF

Take `Cn1c(-c2cc(N3CCN4C[C@H](O)CC4C3)ncc2Cl)nc2ccccc21` (stereo in doubt) [Example A-60, (7R,8aS)-2-[5-chloro-4-(1-methyl-1H-benzimidazol-2-yl)pyridin-2-yl]octahydropyrrolo[1,2-a]pyrazin-7-ol]: the IC50 in the experiment with Gli-Luc/MEF cells (Smo) was found to be 22 nM; in experiment [1], 27 nM. Also, in experiment [1], the inhibition at 0.05 µM stood at 96%.

Take `Cn1c(-c2cc(N3CCN4C[C@H](O)CC4C3)ncc2Cl)nc2ccccc21` (stereo in doubt) [Example A-92, (7R,8aR)-2-[5-chloro-4-(1-methyl-1H-benzimidazol-2-yl)pyridin-2-yl]octahydropyrrolo[1,2-a]pyrazin-7-ol]: the IC50 in the experiment on Gli-Luc/MEF cells (Smo) stood at 46 nM. Further, in experiment [1], the inhibition at 0.05 µM was 88% and the IC50 was determined as 79 nM.

In the case of `Cn1c(-c2cc(N3C[C@@H](CO)C(C)(CO)C3)ncc2Cl)nc2ccccc21` (stereo in doubt) [Example A-95, {(3R,4S)-1-[5-chloro-4-(1-methyl-1H-benzimidazol-2-yl)pyridin-2-yl]-3-methylpyrrolidine-3,4-diyl}dimethanol], in the experiment on Gli-Luc/MEF cells (Smo), it took 38 nM to reach half-maximal inhibition (IC50). Besides, in experiment [1], the inhibition at 0.05 µM came to 86% and the IC50 was 70 nM.

`CC(=O)NC1CCN(c2cc(-c3nc4ccccc4n3C)c(Cl)cn2)C1` (stereo in doubt) [Example A-116, N-{(3R)-1-[5-chloro-4-(1-methyl-1H-benzimidazol-2-yl)pyridin-2-yl]pyrrolidin-3-yl}acetamide] displayed an IC50 in the experiment with Gli-Luc/MEF cells (Smo) of 86 nM. Also, the inhibition at 0.05 µM in experiment [1] came out at 68%.

Compound `CN(C)C(=O)COC1CCN(c2cc(-c3nc4ccccc4n3C)c(Cl)cn2)C1` (stereo in doubt) [Example A-126, 2-({(3R)-1-[5-chloro-4-(1-methyl-1H-benzimidazol-2-yl)pyridin-2-yl]pyrrolidin-3-yl}oxy)-N,N-dimethylacetamide] showed an IC50 with Gli-Luc/MEF cells (Smo) of 109 nM. In experiment [1], the inhibition at 0.05 µM came to 57%.

For `CC(=O)N1CCN(c2cc(-c3nc4ccccc4n3C)c(Cl)cn2)CC1` [Example A-1, 2-[2-(4-acetylpiperazin-1-yl)-5-chloropyridin-4-yl]-1-methyl-1H-benzimidazole], the concentration for half-maximal inhibition (IC50) is 4 nM in the experiment with Gli-Luc/MEF cells (Smo) and 15.2 nM in experiment [1]. The inhibition at 0.05 µM in experiment [1] is 90%.

`COC(=O)N1CCN(c2cc(-c3nc4ccccc4n3C)c(Cl)cn2)CC1` [Example A-2, methyl 4-[5-chloro-4-(1-methyl-1H-benzimidazol-2-yl)pyridin-2-yl]piperazine-1-carboxylate]: the IC50 was determined as 3 nM with Gli-Luc/MEF cells (Smo) and 17.2 nM in experiment [1]. In addition, the inhibition at 0.05 µM in experiment [1] came out at 87%.

On to `CNC(=O)N1CCN(c2cc(-c3nc4ccccc4n3C)c(Cl)cn2)CC1` [Example A-3, 4-[5-chloro-4-(1-methyl-1H-benzimidazol-2-yl)pyridin-2-yl]-N-methylpiperazine-1-carboxamide], for which the half-maximal inhibitory concentration (IC50) in the experiment with Gli-Luc/MEF cells (Smo) amounted to 9 nM. Moreover, in experiment [1], the inhibition at 0.05 µM worked out at 93% and the concentration for half-maximal inhibition (IC50) turned out to be 14.1 nM.

For the compound `Cn1c(-c2cc(N3CCN(S(C)(=O)=O)CC3)ncc2Cl)nc2ccccc21` [Example A-4, 2-{5-chloro-2-[4-(methylsulfonyl)piperazin-1-yl]pyridin-4-yl}-1-methyl-1H-benzimidazole], the figures for the IC50 (in the experiment with Gli-Luc/MEF cells (Smo); in experiment [1]) were 3 nM and 29.2 nM, respectively. Besides, the inhibition at 0.05 µM in experiment [1] is 91%.

`Cn1c(-c2cc(N3CCC(NS(C)(=O)=O)CC3)ncc2Cl)nc2ccccc21` [Example A-5, N-{1-[5-chloro-4-(1-methyl-1H-benzimidazol-2-yl)pyridin-2-yl]piperidin-4-yl}methanesulfonamide]: the IC50 in the experiment on Gli-Luc/MEF cells (Smo) is 0.6 nM. In experiment [1], the inhibition at 0.05 µM was found to be 97% and the IC50 came out at 8 nM.

Turning to `CN(C1CCN(c2cc(-c3nc4ccccc4n3C)c(Cl)cn2)CC1)S(C)(=O)=O` [Example A-6, N-{1-[5-chloro-4-(1-methyl-1H-benzimidazol-2-yl)pyridin-2-yl]piperidin-4-yl}-N-methylmethanesulfonamide], half-maximal inhibition in the experiment with Gli-Luc/MEF cells (Smo) (IC50) was put at 3 nM. Besides, the inhibition at 0.05 µM in experiment [1] turned out to be 96%.

`Cn1c(-c2cc(N3C[C@@H]4[C@H](C3)[C@H]4NS(C)(=O)=O)ncc2Cl)nc2ccccc21` [Example A-8, N-{(1R,5S,6S)-3-[5-chloro-4-(1-methyl-1H-benzimidazol-2-yl)pyridin-2-yl]-3-azabicyclo[3.1.0]hex-6-yl}methanesulfonamide] displayed an IC50 in the experiment with Gli-Luc/MEF cells (Smo) of 15 nM. Besides, in experiment [1], the inhibition at 0.05 µM came to 94% and the IC50 stood at 64 nM.

For the compound `CC(=O)N[C@H]1[C@@H]2CN(c3cc(-c4nc5ccccc5n4C)c(Cl)cn3)C[C@@H]21` [Example A-9, N-{(1R,5S,6S)-3-[5-chloro-4-(1-methyl-1H-benzimidazol-2-yl)pyridin-2-yl]-3-azabicyclo[3.1.0]hex-6-yl}acetamide], the IC50 in the experiment on Gli-Luc/MEF cells (Smo) was 23 nM; in experiment [1], 189 nM. For the same compound, the inhibition at 0.05 µM in experiment [1] was 74%.

Turning to `Cn1c(-c2ccnc(N3CCC(S(C)(=O)=O)CC3)c2)nc2ccccc21` [Example A-10, 1-methyl-2-{2-[4-(methylsulfonyl)piperidin-1-yl]pyridin-4-yl}-1H-benzimidazole], the 50% inhibitory concentration (IC50) was 38 nM with Gli-Luc/MEF cells (Smo) and 95 nM in experiment [1]. Also, the inhibition at 0.05 µM in experiment [1] was found to be 80%.

Take `Cn1c(-c2ccnc(N3CCS(=O)(=O)CC3)c2)nc2ccccc21` [Example A-11, 2-[2-(1,1-dioxidothiomorpholin-4-yl)pyridin-4-yl]-1-methyl-1H-benzimidazole]: the IC50 with Gli-Luc/MEF cells (Smo) came to 275 nM; in experiment [1] it was 486 nM. In addition, the inhibition at 0.05 µM in experiment [1] was found to be 52%.

Take `Cn1c(-c2ccnc(N3CCC(CS(C)(=O)=O)CC3)c2)nc2ccccc21` [Example A-12, 1-methyl-2-(2-{4-[(methylsulfonyl)methyl]piperidin-1-yl}pyridin-4-yl)-1H-benzimidazole]: the concentration for half-maximal inhibition (IC50) in the experiment with Gli-Luc/MEF cells (Smo) is 23 nM. Besides, in experiment [1], the inhibition at 0.05 µM came to 82% and the 50% inhibitory concentration (IC50) amounted to 48 nM.

In turn, `Cn1c(-c2ccnc(N3CCCNCC3)c2)nc2ccccc21` [Example A-13, 2-[2-(1,4-diazepan-1-yl)pyridin-4-yl]-1-methyl-1H-benzimidazole] returned an IC50 in the experiment on Gli-Luc/MEF cells (Smo) of 89 nM. In experiment [1], the inhibition at 0.05 µM amounted to 66% and the IC50 is 423 nM.

In the experiment with Gli-Luc/MEF cells (Smo), `Cn1c(-c2ccnc(N3CCCN(S(C)(=O)=O)CC3)c2)nc2ccccc21` [Example A-14, 1-methyl-2-{2-[4-(methylsulfonyl)-1,4-diazepan-1-yl]pyridin-4-yl}-1H-benzimidazole] displayed a half-maximal inhibitory concentration (IC50) of 84 nM. In addition, in experiment [1], the inhibition at 0.05 µM was 84% and the IC50 came out at 31 nM.
